Assay results reported in patent US9464064B2, “HCV helicase inhibitors and methods of use thereof” (University of Kansas, priority 2011, dated 2016).

Target: T1, HCV NS3 helicase NS3h_1b(con1) (Hepatitis C virus genotype 1b, UniProt Q9WMX2)
T1 construct: truncated C-terminally His-tagged NS3 proteins lacking the N-terminal protease, called NS3h; His-tag (C); made in house
Experiment: MBHA screen of NCI mechanistic set library at 20 μM (percent inhibition, compound interference)
Type: biochemical
Details: compounds at 20 μM; for Inh. (%) (Inhibition): calculated from Equation 1
Procedure, shortened: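 Molecular beacon-based DNA unwinding assay; compounds screened at 20 μM in triplicate, with DMSO-only negative and 500 nM dT20 positive controls. Fluorescence (ex 643/em 670 nm) was read before and 30 min after adding ATP to 1 mM. Percent inhibition came from the change relative to DMSO controls; interference from pre-ATP fluorescence versus DMSO controls.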

[1] = MBHA with DNA substrate, assay interference calculated with Equation 2
[2] = assay interference calculated with Equation 2 (fluorescence vs DMSO-only controls before ATP)

T1 sequence (Q9WMX2 1192-1657): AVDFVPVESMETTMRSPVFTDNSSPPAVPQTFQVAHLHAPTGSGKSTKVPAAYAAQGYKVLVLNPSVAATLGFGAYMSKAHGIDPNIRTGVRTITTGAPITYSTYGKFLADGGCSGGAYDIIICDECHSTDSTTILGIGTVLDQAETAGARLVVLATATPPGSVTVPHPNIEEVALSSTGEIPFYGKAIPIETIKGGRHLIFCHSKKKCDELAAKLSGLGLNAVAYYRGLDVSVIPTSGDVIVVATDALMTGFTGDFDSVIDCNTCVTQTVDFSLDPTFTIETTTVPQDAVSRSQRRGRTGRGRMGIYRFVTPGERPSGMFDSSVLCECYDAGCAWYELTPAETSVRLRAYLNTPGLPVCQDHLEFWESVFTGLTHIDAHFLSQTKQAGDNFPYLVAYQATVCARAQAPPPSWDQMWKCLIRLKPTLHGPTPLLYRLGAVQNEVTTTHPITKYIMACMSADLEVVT

SMILES | Int.* (Ratio) (Interference) [1] | Inh. (%) (Inhibition) (MBHA with DNA substrate) | Inh. (%) (Inhibition) (MBHA with a DNA substrate) | Int.* (Ratio) (Interference) [2]
O=C(CCCN1CCC(C(O)c2ccc(F)cc2)CC1)c1ccc(F)cc1 (stereo not drawn) [Compound 343513] | 0.91 Ratio | −8.7% |  | 
NP(=O)(Oc1c2occc2cc2ccc(=O)oc12)N(CCCl)CCCl (stereo not drawn) [Compound 345081] |  |  | 9.2% | 0.95 Ratio
CC1Oc2cc3c(-c4c(O)cc(O)c5c(O)c6c(cc45)OC(C)C(C)C6=O)c(O)cc(O)c3c(O)c2C(=O)C1C (stereo not drawn) [Compound 345647] | 0.80 Ratio | −17.6% |  | 
O=[Se]([O-])[O-].[Na+].[Na+] [Compound 347466] | 0.89 Ratio | 27.4% |  | 
O=C1N[C@@H]2C(=C[C@H](O)[C@@H](O)[C@H]2O)c2cc3c(cc21)OCO3 [Compound 349155] | 0.98 Ratio | 4.1% |  | 
O=C1N[C@H]2[C@H](O)[C@H](O)[C@@H](O)[C@H](O)[C@@H]2c2cc3c(c(O)c21)OCO3 [Compound 349156] | 0.95 Ratio | −10.2% |  | 
CC(O)CCC(=O)c1ccoc1 (stereo not drawn) [Compound 349438] |  |  | 10.5% | 1.01 Ratio
COC1=C(C)C(=O)C2=C(C1=O)C(CO)N1C(C#N)C3CC4C(C1C2N1CCOC41)N3C (stereo not drawn) [Compound 349644] |  |  | 7.1% | 0.91 Ratio
Cc1ccc(S(=O)(=O)ON=C2CC(c3ccccc3)N(C)C(c3ccccc3)C2)cc1 (stereo not drawn) [Compound 351306] | 0.92 Ratio | 25.4% |  | 
COc1cc(C(C)c2cc3c(cc2OCCO)OCO3)cc(OC)c1OC (stereo not drawn) [Compound 352876] |  |  | −19.4% | 1.08 Ratio
Nc1ncnc2c([C@@H]3O[C@H](CO)[C@@H](O)[C@H]3O)c[nH]c12 [Compound 352890] |  |  | 7.0% | 0.94 Ratio
CCOc1ccc(C(C)c2cc3c(cc2OC)OCO3)cc1 (stereo not drawn) [Compound 353648] | 0.94 Ratio | 1.7% |  | 
C=Cc1cc(OC)c2c(c1)c(=O)oc1c2cc(OC)c2c(O)ccc(C3OC(C)C(O)C(C)(O)C3O)c21 (stereo not drawn) [Compound 354844] | 0.93 Ratio | 32.6% |  | 
NC(=O)C1=C[C@H]2[C@H]3C=C[C@@]2(O)C(=O)O[C@@H]3O1 [Compound 357683] | 0.99 Ratio | 2.7% |  | 
CCN(CC)Cc1cc(N=Nc2c(O)ccc3c(N=Nc4ccc(O)c(CN(CC)CC)c4)c(O)ccc23)ccc1O.Cl [Compound 359463] |  |  | 7.3% | 0.45 Ratio
Cc1ccc2c(c1)C1(C)OC(C=CC1=O)O2 (stereo not drawn) [Compound 359892] | 0.98 Ratio | −0.7% |  | 
CN1CCN(CN2C(=O)C3C4C=CC(C3C2=O)C2C3C(=O)N(CN5CCN(C)CC5)C(=O)C3C42)CC1 (stereo not drawn) [Compound 361813] | 1.03 Ratio | 21.8% |  | 
COC(=O)NC1C(C)OC(OC2C/C=C(/C)C3C=CC4C(OC5CC(OC6CC(O)C(OC7CC(O)C(OC)C(C)O7)C(C)O6)C(O)C(C)O5)C(C)CC(C)C4C3(C)/C(O)=C3\C(=O)OC4(CC(C)C(CO)=CC4/C=C\2C)C3=O)CC1(C)[N+](=O)[O-] (stereo not drawn) [Compound 363182] | 1.08 Ratio | 22.2% |  | 

SMILES | Int.* (Ratio) (Interference) [1] | Inh. (%) (Inhibition) (MBHA with DNA substrate) | Inh. (%) (Inhibition) (MBHA with a DNA substrate) | Int.* (Ratio) (Interference) [2]
CC1(C)C2CCC1(CS(=O)(=O)O)C(=O)C2.CN1C(c2ccccc2)CC(=NO)CC1c1ccccc1 (stereo not drawn) [Compound 363744] | 1.04 Ratio | 17.2% |  | 
Cl.O=C1c2cccc(NCCCNCCO)c2C(=O)c2cccc(NCCCNCCO)c21 [Compound 363998] | 0.17 Ratio | 138.7% |  | 
N#CC(=S)Nc1ccc(F)cc1 [Compound 369317] | 0.95 Ratio | 2.8% |  | 
Cc1ccc(NC(=S)C#N)c(C)c1 [Compound 369318] | 0.95 Ratio | −0.4% |  | 
COc1ccc2c(c1)CCc1c-2n[nH]c1-c1[nH]nc2c1CCc1cc(OC)ccc1-2 [Compound 371846] | 0.86 Ratio | 2.1% |  | 
CN1C(Cl)=NS(=O)(=O)c2ccccc21 [Compound 373853] | 0.92 Ratio | 5.1% |  | 
Cc1ccc(NC(=O)c2cc3ccccc3c(N=Nc3ccccc3O)c2O)c(C)c1 [Compound 374898] | 0.97 Ratio | 3.2% |  | 
CC1(C)CCCC2(C)C3=C(CCC12)C(=O)OC3 (stereo not drawn) [Compound 375294] | 0.87 Ratio | 13.9% |  | 
Nc1ccn([C@@H]2C=C(CO)[C@@H](O)[C@H]2O)c(=O)n1 [Compound 375575] | 0.93 Ratio | 12.9% |  | 
COc1cc2oc3cc(=O)cc4oc(-c5ccccc5)cc(c2c2c1CCC(c1ccccc1)O2)c43 (stereo not drawn) [Compound 376248] |  |  | 11.4% | 0.80 Ratio
C/C(=N\NC(=S)N1CCN(C2CCCCCC2)CC1)c1ccccn1 [Compound 376265] | 1.02 Ratio | −13.7% |  | 
CC1(C)NC(=O)N(CCCCCCN2C(=O)NC(C)(C)C2=O)C1=O [Compound 376791] | 1.08 Ratio | −7.3% |  | 
N#CC(=S)Nc1ccc(Cl)c(Cl)c1 [Compound 379531] |  |  | 11.6% | 0.89 Ratio
C=C(CN(C)C)C(=O)c1ccccc1Cl.Cl [Compound 382007] | 0.85 Ratio | 22.9% |  | 
Br.CCN(CC)CC(C)(C)C(=O)/C=C/c1ccc(C)cc1 [Compound 382766] | 0.90 Ratio | 19.2% |  | 
C=C1CC[C@@H]2[C@](C)(CO)[C@H](O)CC[C@@]2(C)[C@@H]1C/C=C1/C(=O)OC[C@H]1O [Compound 383468] |  |  | 9.4% | 0.98 Ratio
O=C1C=Cc2ncccc2C1=O [Compound 400944] |  |  | −6.2% | 0.84 Ratio
CC1=C2C(=CC(C)(C)[C@@H]2O)C(=O)[C@](C)(O)C12CC2 [Compound 400978] | 1.10 Ratio | 17.9% |  | 
